Results from ChEMBL document CHEMBL1201862, “PubChem BioAssay data set” (2004).
Active and inactive are the calls of the source.

Experiments:
[1] = NIH-3T3 fibroblast cytotoxicity, dose response, cytotoxicity control for antifungal single agent project, cell-based, Alamar Blue, dry powder (AID 602188); type: functional
[2] = target: T1, Carboxy-terminal domain RNA polymerase II polypeptide A small phosphatase 1 (Homo sapiens, UniProt Q9GZU7); assay: inhibitors of CTDSP1, concentration-response testing, biochemical assay, absorbance-based, actives from ultra-high-throughput screening (AID 540297); type: functional
T1 sequence (Q9GZU7 whole entry): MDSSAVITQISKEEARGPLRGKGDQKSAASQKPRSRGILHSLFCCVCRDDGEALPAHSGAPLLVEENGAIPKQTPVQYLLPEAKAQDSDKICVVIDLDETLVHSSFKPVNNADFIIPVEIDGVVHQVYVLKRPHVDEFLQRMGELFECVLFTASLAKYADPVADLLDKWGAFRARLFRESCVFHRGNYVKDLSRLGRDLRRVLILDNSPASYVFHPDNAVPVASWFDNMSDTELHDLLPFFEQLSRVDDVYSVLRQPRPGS

[3] = target: Low molecular weight phosphotyrosine protein phosphatase (Homo sapiens, UniProt P24666); type: functional; details: read-out: IC50_Mean;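 note: Dose-response confirmation assay measuring inhibition of LMPTP enzyme activity by fluorescence intensity read-out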
Low molecular weight phosphotyrosine protein phosphatase, sequence (P24666 whole entry, the tested form may be a part): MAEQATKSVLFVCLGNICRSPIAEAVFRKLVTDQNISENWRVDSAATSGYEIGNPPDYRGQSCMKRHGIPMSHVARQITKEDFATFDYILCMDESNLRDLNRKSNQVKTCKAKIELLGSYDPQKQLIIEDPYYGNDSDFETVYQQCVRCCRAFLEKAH

[4] = target: T2, Tyrosine-protein phosphatase non-receptor type 22 (Homo sapiens, UniProt Q9Y2R2); assay: LYP phosphatase inhibition for selectivity, dose response, selectivity assay for LMPTP inhibitor project, biochemical, fluorescence, LYP catalytic domain (AID 652006); type: functional; details: read-out: IC50_Mean
T2 sequence (Q9Y2R2 whole entry): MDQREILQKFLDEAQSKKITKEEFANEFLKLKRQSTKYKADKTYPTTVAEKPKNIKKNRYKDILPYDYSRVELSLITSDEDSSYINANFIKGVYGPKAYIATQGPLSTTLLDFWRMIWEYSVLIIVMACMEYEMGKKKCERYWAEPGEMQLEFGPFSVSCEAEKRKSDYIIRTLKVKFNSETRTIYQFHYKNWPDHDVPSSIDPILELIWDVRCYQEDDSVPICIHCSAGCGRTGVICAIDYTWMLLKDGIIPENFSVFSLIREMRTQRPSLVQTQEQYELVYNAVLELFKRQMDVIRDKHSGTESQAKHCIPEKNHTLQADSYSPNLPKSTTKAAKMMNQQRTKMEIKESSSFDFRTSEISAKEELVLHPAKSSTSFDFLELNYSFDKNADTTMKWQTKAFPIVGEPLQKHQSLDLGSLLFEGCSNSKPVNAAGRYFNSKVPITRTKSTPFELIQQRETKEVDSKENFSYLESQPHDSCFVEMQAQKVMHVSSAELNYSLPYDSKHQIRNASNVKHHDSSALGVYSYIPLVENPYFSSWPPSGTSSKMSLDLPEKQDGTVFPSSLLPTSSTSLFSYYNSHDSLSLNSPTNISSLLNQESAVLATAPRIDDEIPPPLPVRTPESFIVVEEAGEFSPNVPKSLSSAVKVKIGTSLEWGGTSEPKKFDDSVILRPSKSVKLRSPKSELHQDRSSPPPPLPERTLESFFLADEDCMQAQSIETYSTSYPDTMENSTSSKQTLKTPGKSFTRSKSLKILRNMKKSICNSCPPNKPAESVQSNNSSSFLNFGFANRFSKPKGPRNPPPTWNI

[5] = system: Streptococcus sp. 'group A'; assay: growth inhibition of control SK(-) GAS strain, dose response, counter-screen for streptokinase expression inhibitor project, luminescence, kanamycin, BacTiterGlo, confirmation (AID 1900); type: functional, organism-based
[6] = target: T3, Streptokinase A (Streptococcus pyogenes serotype M1, UniProt P10520); assay: S. pyogenes streptokinase expression inhibitors, potency, dose response, plasminogen activation absorbance, OD405 (AID 1914); type: functional, Streptococcus pyogenes M1 GAS;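 note: secreted streptokinase activity via plasminogen activation per viability signal from cell pellet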
T3 sequence (P10520 whole entry): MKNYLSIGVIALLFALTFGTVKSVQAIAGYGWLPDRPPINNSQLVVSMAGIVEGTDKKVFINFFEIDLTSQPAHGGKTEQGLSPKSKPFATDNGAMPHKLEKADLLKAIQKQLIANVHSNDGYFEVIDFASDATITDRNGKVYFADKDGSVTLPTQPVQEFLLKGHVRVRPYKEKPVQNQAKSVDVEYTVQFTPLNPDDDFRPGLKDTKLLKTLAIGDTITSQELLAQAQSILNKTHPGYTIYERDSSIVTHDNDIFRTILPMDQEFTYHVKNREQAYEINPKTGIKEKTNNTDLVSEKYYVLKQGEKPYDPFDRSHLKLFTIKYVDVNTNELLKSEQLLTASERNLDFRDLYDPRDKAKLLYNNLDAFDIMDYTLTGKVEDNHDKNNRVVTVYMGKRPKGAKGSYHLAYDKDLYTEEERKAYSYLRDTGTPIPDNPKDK

[7] = system: Streptococcus; assay: Group A Streptococcus viability loss, dose response, counter-screen for streptokinase expression inhibitor project, luminescence, BacTiterGlo (AID 1915); type: functional, organism-based;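 note: potency for reduction of bacterial viability or growth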
[8] = target: DNA (cytosine-5)-methyltransferase 1 (Homo sapiens, UniProt P26358); assay: DNMT1 methyltransferase inhibitors, confirmation, biochemical, fluorescent molecular beacon (AID 602386); type: functional
DNA (cytosine-5)-methyltransferase 1, sequence (P26358 whole entry): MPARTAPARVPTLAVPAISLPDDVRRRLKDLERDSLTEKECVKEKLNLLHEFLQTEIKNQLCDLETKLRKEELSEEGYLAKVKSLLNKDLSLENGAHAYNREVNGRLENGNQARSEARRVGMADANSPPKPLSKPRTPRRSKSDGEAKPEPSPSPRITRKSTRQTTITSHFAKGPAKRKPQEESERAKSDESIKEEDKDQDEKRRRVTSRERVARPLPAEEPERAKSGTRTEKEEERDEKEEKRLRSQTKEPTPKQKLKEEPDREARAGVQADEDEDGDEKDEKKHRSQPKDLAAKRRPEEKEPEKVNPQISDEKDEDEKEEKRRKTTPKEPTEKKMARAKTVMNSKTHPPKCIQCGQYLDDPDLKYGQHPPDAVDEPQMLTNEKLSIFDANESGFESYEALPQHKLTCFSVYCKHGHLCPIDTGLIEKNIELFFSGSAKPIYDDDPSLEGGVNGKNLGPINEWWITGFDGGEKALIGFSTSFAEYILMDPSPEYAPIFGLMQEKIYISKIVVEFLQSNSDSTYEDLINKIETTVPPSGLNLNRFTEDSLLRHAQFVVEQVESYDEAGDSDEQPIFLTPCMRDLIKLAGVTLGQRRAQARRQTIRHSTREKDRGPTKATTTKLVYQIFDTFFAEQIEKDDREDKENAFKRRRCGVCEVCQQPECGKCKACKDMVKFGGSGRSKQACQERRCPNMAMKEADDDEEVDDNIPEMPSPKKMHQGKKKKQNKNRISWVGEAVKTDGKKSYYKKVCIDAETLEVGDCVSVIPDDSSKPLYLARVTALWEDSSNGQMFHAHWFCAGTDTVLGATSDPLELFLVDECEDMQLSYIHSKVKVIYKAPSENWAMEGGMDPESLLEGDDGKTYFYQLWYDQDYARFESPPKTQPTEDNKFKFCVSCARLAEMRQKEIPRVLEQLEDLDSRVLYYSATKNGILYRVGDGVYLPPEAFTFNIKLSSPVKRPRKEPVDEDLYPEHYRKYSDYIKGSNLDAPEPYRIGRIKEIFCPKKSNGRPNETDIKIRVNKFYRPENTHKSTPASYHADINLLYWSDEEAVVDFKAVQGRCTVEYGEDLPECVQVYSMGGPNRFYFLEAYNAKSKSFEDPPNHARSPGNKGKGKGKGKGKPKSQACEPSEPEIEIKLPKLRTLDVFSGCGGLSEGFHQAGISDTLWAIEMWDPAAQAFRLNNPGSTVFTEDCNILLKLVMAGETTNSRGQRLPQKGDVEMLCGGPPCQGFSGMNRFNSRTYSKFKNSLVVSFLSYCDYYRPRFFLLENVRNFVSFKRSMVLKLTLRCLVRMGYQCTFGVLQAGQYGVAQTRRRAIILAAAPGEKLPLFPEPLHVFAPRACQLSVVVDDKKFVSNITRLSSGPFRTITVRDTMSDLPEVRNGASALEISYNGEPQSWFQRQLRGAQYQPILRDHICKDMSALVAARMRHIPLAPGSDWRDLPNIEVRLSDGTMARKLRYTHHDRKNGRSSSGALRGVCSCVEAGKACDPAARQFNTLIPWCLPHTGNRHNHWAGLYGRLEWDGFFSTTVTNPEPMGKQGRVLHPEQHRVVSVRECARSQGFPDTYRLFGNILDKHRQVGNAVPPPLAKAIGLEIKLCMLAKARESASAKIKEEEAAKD

[9] = target: Adenosylmethionine-8-amino-7-oxononanoate aminotransferase (Mycobacterium tuberculosis, UniProt P9WQ81); assay: Mycobacterium tuberculosis BioA enzyme inhibitor Measured in Biochemical System Using Plate Reader - 2163-02_Inhibitor_Dose_CherryPick_Activity.; type: functional, Mycobacterium tuberculosis UT205
Adenosylmethionine-8-amino-7-oxononanoate aminotransferase, sequence (P9WQ81 whole entry): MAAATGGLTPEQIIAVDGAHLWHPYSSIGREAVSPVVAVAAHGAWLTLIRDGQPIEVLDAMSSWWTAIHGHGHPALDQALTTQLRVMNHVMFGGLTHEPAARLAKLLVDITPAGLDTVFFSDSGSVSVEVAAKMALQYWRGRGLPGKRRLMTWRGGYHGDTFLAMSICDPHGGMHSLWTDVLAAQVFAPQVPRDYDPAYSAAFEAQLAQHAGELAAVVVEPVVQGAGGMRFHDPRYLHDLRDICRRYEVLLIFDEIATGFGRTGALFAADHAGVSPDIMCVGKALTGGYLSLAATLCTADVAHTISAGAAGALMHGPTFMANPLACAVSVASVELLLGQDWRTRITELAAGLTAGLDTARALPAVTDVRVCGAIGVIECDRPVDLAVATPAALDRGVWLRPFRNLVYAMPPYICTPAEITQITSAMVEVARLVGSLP

[10] = target: T4, Caspase-3 (Homo sapiens, UniProt P42574); type: functional;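 note: Dose-response selectivity test against caspase-3 for candidate inhibitors of sentrin-specific proteases (SENPs)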
T4 sequence (P42574 whole entry): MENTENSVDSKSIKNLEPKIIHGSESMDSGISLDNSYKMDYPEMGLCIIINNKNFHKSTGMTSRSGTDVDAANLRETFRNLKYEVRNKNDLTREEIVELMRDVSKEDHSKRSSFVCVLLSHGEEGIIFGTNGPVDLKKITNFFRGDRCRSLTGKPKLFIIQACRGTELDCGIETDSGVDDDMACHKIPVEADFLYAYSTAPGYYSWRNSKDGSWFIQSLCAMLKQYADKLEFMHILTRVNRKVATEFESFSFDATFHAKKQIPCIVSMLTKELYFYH

[11] = target: T5, Sentrin-specific protease 7 (Homo sapiens, UniProt Q9BQF6); type: functional;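 note: Luminescence-based dose-response confirmation of ultra-high-throughput screening hits, measuring inhibition of SENP7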
T5 sequence (Q9BQF6 whole entry): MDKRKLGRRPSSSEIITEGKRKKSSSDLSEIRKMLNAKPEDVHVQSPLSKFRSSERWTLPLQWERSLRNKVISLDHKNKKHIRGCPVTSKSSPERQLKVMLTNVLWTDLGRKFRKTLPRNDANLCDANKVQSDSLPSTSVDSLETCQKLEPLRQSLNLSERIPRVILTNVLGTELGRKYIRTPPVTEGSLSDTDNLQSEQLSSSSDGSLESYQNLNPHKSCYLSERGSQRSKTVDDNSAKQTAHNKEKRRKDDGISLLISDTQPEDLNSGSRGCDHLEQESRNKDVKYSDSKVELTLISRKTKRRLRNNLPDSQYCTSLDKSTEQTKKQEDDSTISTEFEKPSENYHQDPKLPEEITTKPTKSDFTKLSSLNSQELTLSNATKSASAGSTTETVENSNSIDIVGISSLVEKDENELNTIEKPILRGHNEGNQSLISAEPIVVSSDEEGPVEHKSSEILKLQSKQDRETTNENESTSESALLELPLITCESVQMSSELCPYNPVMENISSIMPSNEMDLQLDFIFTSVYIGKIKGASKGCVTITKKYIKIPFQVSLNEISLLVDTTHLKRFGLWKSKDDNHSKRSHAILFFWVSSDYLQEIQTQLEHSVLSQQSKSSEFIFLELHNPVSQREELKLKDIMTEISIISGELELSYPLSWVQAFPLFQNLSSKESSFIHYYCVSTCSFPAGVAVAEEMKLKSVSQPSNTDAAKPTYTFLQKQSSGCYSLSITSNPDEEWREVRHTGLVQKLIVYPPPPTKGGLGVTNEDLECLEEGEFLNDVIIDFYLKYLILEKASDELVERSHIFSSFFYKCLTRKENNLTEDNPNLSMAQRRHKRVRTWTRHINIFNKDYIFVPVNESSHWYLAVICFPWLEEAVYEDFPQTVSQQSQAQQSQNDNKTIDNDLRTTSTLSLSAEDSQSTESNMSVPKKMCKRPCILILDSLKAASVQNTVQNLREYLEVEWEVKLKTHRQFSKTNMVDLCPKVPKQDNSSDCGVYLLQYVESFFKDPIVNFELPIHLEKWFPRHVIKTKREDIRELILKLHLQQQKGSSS

[12] = target: T6, Sentrin-specific protease 6 (Homo sapiens, UniProt Q9GZR1); type: functional;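 note: Luminescence-based dose-response confirmatory assay of SENP6 inhibition, following up an ultra-high-throughput screen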
T6 sequence (Q9GZR1 whole entry): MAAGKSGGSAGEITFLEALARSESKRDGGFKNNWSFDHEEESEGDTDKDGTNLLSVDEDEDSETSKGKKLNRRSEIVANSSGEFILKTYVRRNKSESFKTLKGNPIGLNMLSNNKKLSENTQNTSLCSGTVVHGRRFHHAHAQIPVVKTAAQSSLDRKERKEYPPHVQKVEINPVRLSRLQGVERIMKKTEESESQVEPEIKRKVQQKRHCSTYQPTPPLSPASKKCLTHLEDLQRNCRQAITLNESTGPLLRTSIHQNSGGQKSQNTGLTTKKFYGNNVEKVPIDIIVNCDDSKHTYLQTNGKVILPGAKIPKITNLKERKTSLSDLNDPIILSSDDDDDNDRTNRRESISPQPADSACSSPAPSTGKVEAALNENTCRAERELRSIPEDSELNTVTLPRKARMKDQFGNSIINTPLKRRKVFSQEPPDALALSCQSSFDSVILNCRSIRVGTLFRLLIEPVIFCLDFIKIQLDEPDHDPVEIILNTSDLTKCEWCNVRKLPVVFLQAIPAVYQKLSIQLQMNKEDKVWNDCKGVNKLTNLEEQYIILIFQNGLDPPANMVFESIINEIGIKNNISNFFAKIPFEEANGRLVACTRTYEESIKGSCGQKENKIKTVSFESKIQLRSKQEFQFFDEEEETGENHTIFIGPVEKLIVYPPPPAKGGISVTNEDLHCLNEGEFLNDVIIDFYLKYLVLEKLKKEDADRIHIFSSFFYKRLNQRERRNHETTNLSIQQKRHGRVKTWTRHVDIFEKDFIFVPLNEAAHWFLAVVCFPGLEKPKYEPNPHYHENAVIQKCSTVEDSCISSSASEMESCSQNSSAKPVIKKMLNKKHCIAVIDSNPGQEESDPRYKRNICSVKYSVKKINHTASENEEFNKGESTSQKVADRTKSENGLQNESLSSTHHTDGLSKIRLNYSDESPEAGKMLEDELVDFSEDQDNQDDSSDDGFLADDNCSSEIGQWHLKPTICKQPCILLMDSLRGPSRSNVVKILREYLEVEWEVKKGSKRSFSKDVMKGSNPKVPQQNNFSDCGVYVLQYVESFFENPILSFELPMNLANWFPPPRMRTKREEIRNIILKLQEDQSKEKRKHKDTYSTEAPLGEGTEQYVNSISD

[13] = target: T7, Sentrin-specific protease 8 (Homo sapiens, UniProt Q96LD8); type: functional;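 note: luminescence read-out of SENP8 inhibition, dose-response confirmation following an ultra-high-throughput screen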
T7 sequence (Q96LD8 whole entry): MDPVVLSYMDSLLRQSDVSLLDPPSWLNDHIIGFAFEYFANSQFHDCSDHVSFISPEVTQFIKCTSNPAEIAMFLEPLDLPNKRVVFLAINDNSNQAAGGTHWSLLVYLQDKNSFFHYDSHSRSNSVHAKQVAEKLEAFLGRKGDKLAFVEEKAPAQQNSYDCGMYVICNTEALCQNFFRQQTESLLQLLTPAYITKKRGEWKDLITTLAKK

[14] = target: Mitochondrial peptide methionine sulfoxide reductase (Bos taurus, UniProt P54149); assay: Absorbance-based biochemical high throughput dose response assay for activators of Methionine sulfoxide reductase A (MsrA).; type: functional
Mitochondrial peptide methionine sulfoxide reductase, sequence (P54149 whole entry): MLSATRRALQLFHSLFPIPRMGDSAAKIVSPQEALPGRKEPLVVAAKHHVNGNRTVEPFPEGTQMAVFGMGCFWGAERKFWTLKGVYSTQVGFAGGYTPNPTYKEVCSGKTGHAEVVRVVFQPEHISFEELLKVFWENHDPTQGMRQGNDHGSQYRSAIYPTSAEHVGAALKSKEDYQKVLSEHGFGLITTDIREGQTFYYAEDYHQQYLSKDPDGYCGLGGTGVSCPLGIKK

[15] = target: Melanin-concentrating hormone receptor 1 (Homo sapiens, UniProt Q99705); assay: Late-stage fluorescence-based counterscreen for antagonists of the G-protein coupled receptor 7 (GPR7): cell-based dose response assay to identify antagonists of the melanin-concentrating hormone receptor 1 (MCHR1) Set 6.; type: functional
Melanin-concentrating hormone receptor 1, sequence (Q99705 whole entry): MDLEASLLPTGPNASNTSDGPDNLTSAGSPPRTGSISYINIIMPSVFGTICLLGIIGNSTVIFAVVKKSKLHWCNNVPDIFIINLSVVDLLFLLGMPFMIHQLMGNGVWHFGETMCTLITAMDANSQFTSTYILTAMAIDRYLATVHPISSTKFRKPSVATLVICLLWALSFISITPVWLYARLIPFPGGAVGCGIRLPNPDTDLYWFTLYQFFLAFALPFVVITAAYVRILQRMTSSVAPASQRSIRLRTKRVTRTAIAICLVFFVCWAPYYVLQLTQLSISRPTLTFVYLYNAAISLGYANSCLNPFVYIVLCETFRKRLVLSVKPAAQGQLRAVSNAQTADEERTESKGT

[16] = target: T8, Neuropeptides B/W receptor type 1 (Homo sapiens, UniProt P48145); assay: GPR7 antagonist potency, late-stage follow-up, cell-based, fluorescence, dose response, set 6 (AID 588583); type: functional
T8 sequence (P48145 whole entry): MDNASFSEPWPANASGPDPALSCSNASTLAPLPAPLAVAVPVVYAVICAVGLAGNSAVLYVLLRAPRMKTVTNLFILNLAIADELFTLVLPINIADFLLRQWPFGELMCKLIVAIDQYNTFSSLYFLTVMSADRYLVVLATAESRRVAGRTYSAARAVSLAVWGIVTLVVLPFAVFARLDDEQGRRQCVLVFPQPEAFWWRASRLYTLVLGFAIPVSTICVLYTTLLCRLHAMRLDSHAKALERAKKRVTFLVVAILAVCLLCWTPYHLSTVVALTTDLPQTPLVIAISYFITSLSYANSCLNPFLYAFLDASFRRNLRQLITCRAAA

[17] = AlphaScreen signal interference compounds, dose response, artefact control for ARNT-TACC3 interaction inhibitor project, biochemical, luminescence, cherry-pick (AID 651705); type: functional;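 note: AlphaScreen bead proximity signal that flags compounds interfering with the detection technology; potency reflects signal decrease which marks the compound as an assay artifact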

## Cc1ccc(C(=O)Nc2nc(-c3ccccn3)cs2)cc1
[1]
  AC50: 9.7 µM (active)

## NC(=O)Cc1ccc(C(=O)CSc2nnc(-c3ccncc3)n2C2CC2)s1
[2]
  IC50: 4.44 µM (active)
[3]
  IC50: 21 µM (inactive)
[4]
  IC50: 55.6 µM (inactive)

## O=C(O)C(c1ccccc1)N1C(=O)/C(=C\c2ccc(-c3ccc(Br)cc3)o2)SC1=S (centres undefined)
[5]
  EC50: 1.81 µM (active)
[6]
  EC50: 1.55 µM (active)
[7]
  EC50: 2.51 µM (active)
[8]
  IC50: 4.08 µM (active)

## CCOc1ccc(C(=O)Nc2cc3c(cc2N2CCCC2)n(CC)c(=O)n3CC)cc1OCC
[9]
  AC50: 6.03 µM (active)

## O=C(COC(=O)c1ccc([N+](=O)[O-])s1)NCc1ccc(F)cc1
[10]
  IC50: 9.32 µM (active)
[11]
  IC50: 6.18 µM (active)
[12]
  IC50: 3.68 µM (active)
[13]
  IC50: 3.72 µM (active)
[14]
  EC50: 27.2 µM (inactive)

## COc1ccc(C(C#N)c2c(Br)cnn(Cc3cccc4ccccc34)c2=O)cc1 (centres undefined)
[15]
  IC50: 0.131 µM (active)
[16]
  IC50: 0.131 µM (active)

## Oc1c(/C=N/CCCn2ccnc2)c(-c2ccccc2)nn1-c1nc2ccccc2s1
[17]
  AC50: 99.5 µM (active)

## Cc1ccc(C(C#N)c2c(Br)cnn(Cc3cccc4ccccc34)c2=O)cc1 (centres undefined)
[15]
  IC50: 0.219 µM (active)
[16]
  IC50: 0.219 µM (active)
